Measured values published in patent publication US20060251576A1, “Methods for measuring cholesterol metabolism and transport” (The Regents of the University of California, priority 2005, published 2006).

Test system: reverse cholesterol transport (RCT)
Assay: Global RCT parameter in rats: Ra cholesterol combined with recovery of administered labeled cholesterol in fecal neutral sterols or bile acids
Format: in vivo
Conditions: for "global parameter" of RCT into neutral sterols (product of Ra cholesterol and excretion of plasma cholesterol): rats fed the agent for 7 days
Procedure: A refinement of the approach outlined in Example 1, involves calculating the Ra of plasma cholesterol and combining that measurement with the fractional excretion of administered cholesterol as described in Example 4. The recovery of plasma cholesterol in stool is defined as the proportion of administered labeled cholesterol that was excreted in fecal neutral sterols. It is expressed as % label recovered from day 1-4 following infusion. It is calculated from: % ^13C enrichment in fecal neutral sterols, the mg/day excretion of neutral sterols and divided by total mg 1 ^13C cholesterol administered. [formula] The same calculation is made for the recovery of plasma cholesterol into bile acids excreted in stool. Rats were treated with common and investigational cholesterol lowering agents, cholesterolamine, ezetimibe, LXR agonist (TO-901317). The Ra of cholesterol is calculated as described, the recovery of administered cholesterol in fecal sterol or bile acids are calculated as described.

With `O=C1[C@H](CC[C@H](O)c2ccc(F)cc2)[C@@H](c2ccc(O)cc2)N1c1ccc(F)cc1` [ezetimibe] the “"global parameter" of RCT into neutral sterols (product of Ra cholesterol and excretion of plasma cholesterol)” value was “significant increase observed” and the “plasma flux to neutral sterols (effect on RCT)” value (rats, FIG. 12) was “increase in plasma flux to neutral sterols”.
For `O=S(=O)(c1ccccc1)N(CC(F)(F)F)c1ccc(C(O)(C(F)(F)F)C(F)(F)F)cc1` [TO-901317], the “excretion of plasma cholesterol into neutral sterols and the global parameter of RCT” value (rats) was “observed increase in RCT” and the “"global parameter" of RCT into neutral sterols (product of Ra cholesterol and excretion of plasma cholesterol)” value was “significant increase observed”.
